{
  "source": "patent US6448283B1",
  "about": "“Methods for preventing/treating damage to sensory hair cells and cochlear neurons” (Cephalon, Inc., priority 1998, dated 2002)",
  "key": {"[1]": {"tested_on": "outer sensory hair cells of the organ of Corti", "experiment": "Cytocochleogram counts of lost outer sensory hair cells after noise trauma (Example 1)", "type": "in vivo, guinea pig", "conditions": "day 21", "description": "Baseline hearing of 8 pigmented guinea pigs (200-300 g) was tested by ABR as described below. ABR is a measure of hearing function. Four animals were treated with daily subcutaneous (s.c.) injections of the compound of Formula II, 1 mg/kg, starting 24 hours prior to noise trauma and lasting until 21 days after exposure to the noise trauma. Four animals served as controls and received only vehicle (the fourth animal died under anaesthesia). All the animals were exposed to traumatic octave band noise, center frequency 4.0 kHz, 125 dB SPL (sound pressure level) for 105 min.\nAfter the treatment period of 21 days and measurement of ABRs, the animals were sacrificed and the temporal bones fixed by 4% PFA (paraformaldehyde) through perilymphatic perfusion. The left cochleas were dissected for surface specimens and the number of sensory hair cells in each auditory organ was evaluated by cytocochleograms. The upper halves of the cochleas were processed for cytocochleograms without embedding by staining cochlear whole mounts with rhodamine phalloidine (Molecular Probes, Eugene, Ore.) in PBS containing 0.25% Triton X-100 overnight at 4° C and mounted in Vectashield (Vector). Phalloidin is a specific marker for cellular F-actin. Basal halves of the cochleas were embedded in\nEpon and processed for cytocochleograms. Selected sections of Epon-embedded cochlear turns were processed for fine structural study by electron microscopy."}, "[2]": {"tested_on": "gentamicin-treated guinea pigs", "experiment": "ABR threshold shifts after gentamicin treatment", "type": "in vivo, guinea pig", "conditions": "gentamicin 120 mg/kg s.c. 14 days plus Formula II 1 mg/kg daily; day 30; n=8; P<0.01", "description": "Adult Dunkin-Hartley female guinea pigs (weight 300-400 g) were used. They were given free access to water and a regular guinea pig diet. The animals were given 1 week of adjustment before baseline ABR recordings and gentamicin (GM) treatment.\n(§1) Two experimental groups were formed. Group 1 guinea pigs served as control and were treated with gentamicin only. The animals were injected s.c. with gentamicin at 120 mg/kg body weight, once daily for 14 days. Three guinea pigs (yielding a total of 6 inner ears) were included in this group. The animals were decapitated 30 days after the start of the injections.\n(§2) Group 2 guinea pigs were treated with gentamicin plus Formula II. The animals were injected s.c. with GM at 120 mg/kg body weight, plus Formula II at 1 mg/kg, once daily for 14 days. Formula II treatment started 1 day before GM injections. Formula II treatment was continued for 28 or 29 days. Four guinea pigs (8 inner ears) were included in this group. The animals were decapitated 30 days after the start of GM injections.\nABRs were determined 1 day before GM injections (baseline values) and at day 30 after the start of the GM injections. […] Thresholds were determined at frequencies 2, 4, 8, 16 and 32 kHz from a set of responses at varying intensities with 5 dB intervals and 1000 sweeps near the threshold. ABRs were measured with System II hardware and BioSig software. […]"}, "[3]": {"tested_on": "vestibular hair cells (ampullary cristae)", "experiment": "Hair cell counts in ampullary cristae after gentamicin treatment", "type": "in vivo, guinea pig", "description": "as §1, §2\nGuinea pigs were decapitated under deep anaesthesia and the inner ears were perilymphatically fixed and immersed with 2.5% glutaraldehyde in 0.1 M phosphate buffer (pH 7.4), postfixed with 1% osmium tetroxide, and embedded in Epon. Cochleas were processed for cytocochleograms (Ylikoski, Acta Otolaryngol (Stockh) Suppl 326:5-20, 1975). The separately dissected and Epon-embedded vestibular organs were cut for 1 μm-thick sections. Every 25th section was collected onto slides and stained with 1% toluidine blue. […] Two control (GM-treated) and 3 Formula II plus GM-treated ampullae were used for analysis. The presence of cell nuclei in the sensory layer (upper half) of the sensory epithelium was regarded as the presence of hair cells. Supporting cell nuclei were clearly distinguished from hair cells by their position (lower part) in the epithelium and by toluidine blue that stains the hair cells weaker than the supporting cells. Hair cell loss was measured by comparing the number of hair cell nuclei in the sensory layer to the number of […]."}, "[4]": {"tested_on": "inner and outer hair cells of the cochlea", "experiment": "Hair cell counts, delayed dosing after noise trauma", "type": "in vivo, guinea pig", "description": "Guinea pigs were exposed to 120 dB, 4 kHz noise for 6 hr. The compound of Formula II was administered beginning 2 hours to 1 day prior to noise trauma, or 1 day after noise trauma, or 4 days after noise trauma. Dosing continued for 2 weeks after noise exposure. As described above, cochleas were prepared and numbers of preserved and lost inner hair cells (IHCs) and outer hair cells of different rows (OHC1, OHC2, OHC3) were counted 2 weeks post noise trauma."}, "[5]": {"tested_on": "JNK signaling cascade (JNK and c-Jun phosphorylation)", "experiment": "Phospho-JNK and phospho-c-Jun immunostaining in neomycin-exposed cochlear explants", "type": "cell-based, rat", "conditions": "500 nM Formula II coincubated with neomycin; n=5 explants", "description": "Six, 12 and 24 hr after adding 100 μM neomycin to the medium, cochlear cultures were fixed with 4% paraformaldehyde in PBS for 30 min. The specimens were prepared for 5 um-thick paraffin sections. They were stained with a TUNEL-kit, mounted in Vectashield containing DAPI nuclear counterstain (Vector, Burlingame, Calif.), and viewed under an Olympus Provis microscope (Tokyo, Japan) using epifluorescence. In addition to TUNEL-staining, DNA fragmentation was verified under UV illumination using DAPI counterstain.\nAdjacent sections were immunostained with a polyclonal phospho-c-Jun antibody (Ser73, 1:500; New England Biolabs, Beverly, Mass.) and a polyclonal phospho-JNK antibody (Thr183/Tyr185, 1:250 dilution; New England Biolabs). The phospho-JNK antibody detects the dually phosphorylated isoforms of JNK 1, 2 and 3. The specificity of the phospho-specific antibodies was verified by Western blotting using sorbitol-treated PC 12 cells. Phospho-JNK antibody recognized the phosphorylated p54/p46 JNK and phospho-c-Jun antibody the phosphorylated p46 c-Jun in sorbitol-treated, but not in untreated PC 12 cells. […] Calbindin immunoreaction was detected using the ABC method and diaminobenzidine without tyramide signal amplification, and the sections were lightly counterstained with 1% toluidine blue. […]"}, "[6]": {"conditions": "single animal, 1 mg/kg s.c. daily, noise 125 dB SPL 105 min, 1 mg/kg"}},
  "note": "Several values for one entry are separate records, joined by “and”; a condition that tells them apart may be missing. Identical values can stand only once.",
  "data": [
    {"compound": "CCSCc1ccc2c(c1)c1c3c(c4c5cc(CSCC)ccc5n5c4c1n2C1C[C@](O)(C(=O)OC)[C@]5(C)O1)CNC3=O", "note": "[Formula II]", "values": [
      {"measurement": "% OHC LOST, MEAN", "setting": "[1]; mean of 4 Formula II animals", "value": 6.1, "unit": "%"},
      {"measurement": "LOST OUTER SENSORY CELLS (OHC): OCH1, MEAN", "setting": "[1]; mean of 4 Formula II animals", "value": 133},
      {"measurement": "LOST OUTER SENSORY CELLS (OHC): OCH2, MEAN", "setting": "[1]; mean of 4 Formula II animals", "value": 107},
      {"measurement": "LOST OUTER SENSORY CELLS (OHC): OCH3, MEAN", "setting": "[1]; mean of 4 Formula II animals", "value": 143},
      {"measurement": "TOTAL OHC LOST, MEAN", "setting": "[1]; mean of 4 Formula II animals", "value": 383},
      {"measurement": "% OHC LOST", "setting": "[1]; [6]", "value": "3.1% and 0.8% and 1.4% and 19.0%"},
      {"measurement": "LOST OUTER SENSORY CELLS (OHC): OCH1", "setting": "[1]; [6]", "value": "90 and 19 and 36 and 356"},
      {"measurement": "LOST OUTER SENSORY CELLS (OHC): OCH2", "setting": "[1]; [6]", "value": "25 and 3 and 18 and 381"},
      {"measurement": "LOST OUTER SENSORY CELLS (OHC): OCH3", "setting": "[1]; [6]", "value": "71 and 27 and 46 and 428"},
      {"measurement": "TOTAL OHC LOST", "setting": "[1]; [6]", "value": "186 and 49 and 100 and 1195"},
      {"measurement": "ABR threshold shift versus control cochleas (GM only)", "setting": "[2]", "value": "less threshold shift at all frequencies tested"},
      {"measurement": "Total number of hair cells", "setting": "[3]; GM + Formula II, single ampulla, all sections counted", "value": "518 and 328 and 620"},
      {"measurement": "Hair cells per frame", "setting": "[3]; GM + Formula II, single ampulla, decimal comma", "value": "1,9 and 2,2"},
      {"measurement": "protective effect in the ampullae", "setting": "[3]; gentamicin 120 mg/kg plus Formula II 1 mg/kg, relative hair cell loss, n=3 ampullae", "value": 70, "unit": "%"},
      {"measurement": "OHC loss total (%)", "setting": "[4]; 1 day delayed dosing, single cochlea", "value": "6.4% and 3.7% and 1.2% and 2.0% and 5.4% and 2.4%"},
      {"measurement": "loss of hair cells versus control cochleas", "setting": "[4]; following exposure to noise, 1 day delayed P<0.01, 4 day delayed P<0.05", "value": "less loss of hair cells"},
      {"measurement": "induction of JNK and c-Jun phosphorylation in hair cells", "setting": "[5]", "value": "prevented"}
    ]}
  ]
}
